Experimental findings from patent publication EP4763840A1, “NOVEL QUINAZOLINE-BENZIMIDAZOLE DERIVATIVE OR PHARMACEUTICALLY ACCEPTABLE SALT THEREOF AND USE THEREOF” (Korea University Research and Business Foundation, priority 2023, dated 2025) are described below.

Assay [1] concerns JIMT-1. The experiment in a line: Annexin V/PI staining flow cytometry in JIMT-1. The format is cell-based, human. Conditions: 5 µM, 48 hours. The protocol:
(§1) Subsequently, after treatment with the compounds of Formulas 1-16 and 1-19 at a concentration of 5 µM for 48 hours in SKBR3 and JIMT-1 cell lines, the degree of apoptosis was measured by flow cytometry through Annexin V/PI staining, and the results are shown in A of FIG. 5. […] After treatment in the same manner as above, expression of apoptosis-related proteins and degradation of tubulin protein were confirmed by western blot, and the results are shown in B of FIG. 5.
Background: A flow cytometer gives signals particle by particle.

The test system of assay [2] is SKBR3. The experiment in a line: Annexin V/PI staining flow cytometry in SKBR3. It is filed as cell-based. As to conditions: 5 µM, 48 hours. As to the method: as §1
Assay [3] relates to SKBR3. The experiment in a line: Cell morphology by optical microscope in SKBR3. The format is cell-based. As to conditions: 5 µM, 48 hours. The protocol: (§2) In addition, after treatment with compounds 1-15, 1-16, 1-19, and 1-22 at a concentration of 5 µM for 48 hours in SKBR3 and JIMT-1 cell lines, morphological changes of the cells were observed using an optical microscope, and the results are shown in B of FIG. 4.

A further assay has as its system MDA-MB-231. The experiment in a line: MTS assay cell viability screening in MDA-MB-231. The format is cell-based, human. As to conditions: 0, 1, and 5 µM, 72 hours. The protocol: (§3) MDA-MB-231 (Cell seeding numbers: 0.8(M231) x 10^4 cells/wells (confluency ≧ 25%), which is a human triple-negative breast cancer (TNBC) cell line, and JIMT-1 (Cell seeding numbers: 0.8(JIMT) x 10^4 cells/wells (confluency ≧ 25%)), which is a HER2 positive breast cancer (HER2+ BC) cell line, were used in the experiment.
(§4) The above cell lines were cultured in Dulbecco's modified Eagle's medium (DMEM) containing 10% fetal bovine serum (FBS), streptomycin-penicillin (100 U/mL), and Fungizone (0.625 µg/mL) at 5% CO2 and 37°C.
(§5) The human breast cancer cell lines MDA-MB-231 and JIMT-1 were treated with quinazoline-benzimidazole derivatives of Formulas 1-1 to 1-31 at various concentrations of 0, 1, and 5 µM, respectively, for 72 hours, and then cell viability was measured using the MTS assay technique. In the MTS assay, cells were attached to a 96-well plate for 24 hours, treated with the quinazoline-benzimidazole derivative for 72 hours, developed with MTS (3-(4,5-dimethylthiazol-2-yl)-5-(3-carboxymethoxyphenyl)-2-(4-sulfophenyl)-2H-tetrazolium) for 4 hours, and then absorbance was measured at 490 nm using a Spectramax Plus384 microplate analyzer.
For orientation: Tetrazolium assays rely on reduction of a dye to a coloured formazan, in cell work by metabolically active cells.

For assay [4], the system named is JIMT-1. Put plainly: Cell cycle analysis by propidium iodide flow cytometry in JIMT-1. The format is cell-based, human. As to conditions: 5 µM, 48 hours, PI staining. The protocol:
In order to confirm this, the following experiments were performed. After treatment with the compounds of Formulas 1-16 and 1-19 at a concentration of 5 µM for 48 hours in a trastuzumab-resistant HER2-positive breast cancer cell JIMT-1, the cells were stained with propidium iodide (PI), and the cell cycle was analyzed according to DNA content using flow cytometry, and the results are shown in A of FIG. 6.

Assay [5] has as its system hepatic cancer cell line HepG2. The experiment in a line: MTS assay cell viability in HepG2. The format is cell-based. As to conditions: 0, 0.1, 0.5, 1, 5, and 10 µM, 72 hours.
Assay [6] concerns colorectal cancer cell line HCT116. The experiment in a line: MTS assay cell viability in HCT116. The format is cell-based. Conditions: 0, 0.1, 0.5, 1, 5, and 10 µM, 72 hours.
In assay [7] the test system is JIMT-1. The experiment in a line: Cell morphology by optical microscope in JIMT-1. Conditions: 5 µM, 48 hours. It is filed as cell-based, human. The protocol: as §2
Assay [8] deals with ovarian cancer cell line SKOV3. Put plainly: MTS assay cell viability in SKOV3. As to conditions: 0, 0.1, 0.5, 1, 5, and 10 µM, 72 hours. It is filed as cell-based.
The test system of assay [9] is prostate cancer cell line Du145. The experiment in a line: MTS assay cell viability in Du145. The format is cell-based. Conditions: 0, 0.1, 0.5, 1, 5, and 10 µM, 72 hours.
Assay [10] deals with HER2, HER family members (HER3 and EGFR), and AKT and MEK. Put plainly: Western blot of HER2 signaling proteins in JIMT-1. As to conditions: 5 µM, 24, 48, and 72 hours. The format is cell-based, human. The protocol: Then, after treatment with the compounds of Formulas 1-16 and 1-19 at a concentration of 5 µM for 24, 48, and 72 hours in a JIMT-1 cell line, protein expression and phosphorylation of HER2, HER family members (HER3 and EGFR), and AKT and MEK of downstream signaling mechanism were confirmed by western blot, and the results are shown in FIG. 7. […] Thereby, it was confirmed that the quinazoline-benzimidazole derivatives of the disclosure have a tyrosine kinase inhibitory effect on HER2 as in the above-described design objective.

Assay [11] deals with JIMT-1. Put plainly: MTS assay cell viability in JIMT-1. It is filed as cell-based, human. Conditions: 72 hours; for inhibition of cell viability: JIMT-1 (trastuzumab-resistant), 0, 0.1, 0.5, 1, 2, and 5 µM; for cell viability: JIMT-1, 0, 1, and 5 µM. The protocol:
as §3, §4, §5, §2

Assay [12] concerns hematological cancer cell line HL-60. Put plainly: MTS assay cell viability in HL-60. It is filed as cell-based. As to conditions: 0, 0.1, 0.5, 1, 5, and 10 µM, 72 hours.
Assay [13] has as its system tubulin protein. Put plainly: Western blot of apoptosis-related proteins and tubulin in JIMT-1. It is filed as cell-based, human. Conditions: 5 µM, 48 hours. As to the method: as §1
For assay [14], the system named is lung cancer cell line H1299. The experiment in a line: MTS assay cell viability in H1299. It is filed as cell-based. Conditions: 0, 0.1, 0.5, 1, 5, and 10 µM, 72 hours.
A further assay deals with phospho-Histone H3. Put plainly: phospho-Histone H3 immunocytochemistry in JIMT-1. The format is cell-based, human. Conditions: 5 µM, 24 hours. The protocol:
In addition, after treatment with compounds 1-16 and 1-19 at a concentration of 5 µM for 24 hours in a JIMT-1 cell line, expression of phospho-Histone H3, a marker of mitosis, was confirmed by immunocytochemistry, and the results are shown in B of FIG. 6.

Assay [15] has as its system tubulin protein. Put plainly: Western blot of apoptosis-related proteins and tubulin in SKBR3. It is filed as cell-based. Conditions: 5 µM, 48 hours. The protocol: as §1
On the technique in general: Immunoblotting shows a protein as a band on a membrane.

The test system of assay [16] is SKBR3. The experiment in a line: MTS assay cell viability in SKBR3. It is filed as cell-based. As to conditions: SKBR3 (trastuzumab-sensitive), 0, 0.1, 0.5, 1, 2, and 5 µM, 72 hours.

For the compound `O=c1c2cc(-c3ccc4nc(-c5ccc(F)c(Cl)c5)[nH]c4c3)ccc2ncn1CCN1CCCCC1` [Formula 1-16], the degree of apoptosis entry was “effectively induced early and late apoptosis” with JIMT-1 [1]; “effectively induced early and late apoptosis” in the assay with SKBR3 [2]. Besides, the “morphological changes of the cells” value in the assay on SKBR3 [3] and with JIMT-1 [7] was “typical apoptotic morphology” throughout. Also, the cell viability result is “excellent activity” in the assay on MDA-MB-231; “effectively inhibited” in [5]; “effectively inhibited” in assay [6]; “effectively inhibited” in [8]; “effectively inhibited” in assay [9]; “excellent activity” in the assay with JIMT-1 [11]. Further, the cell viability entry in [12] and in assay [14] was “effectively inhibited” in each case. For the same compound, the “cell cycle according to DNA content” value in the assay with JIMT-1 [4] was “G2/M phase cell cycle arrest”. The “activities of HER2, p95HER2, HER3, EGFR, AKT, and MEK” value in assay [10] was “effectively inhibited”. In addition, in assay [10], the “protein expression and phosphorylation of HER2, HER family members (HER3 and EGFR), and AKT and MEK” value is “decreased in a time-dependent manner”. Besides, the “inhibition of cell viability” value with JIMT-1 [11] and in the assay with SKBR3 [16] was “concentration-dependent inhibition of cell viability” each time. Besides, the “expression of apoptosis-related proteins and degradation of tubulin protein” value in the assay on tubulin protein [13] and in the assay with tubulin protein [15] was “apoptosis effect by inhibiting tubulin polymerization” each time. In addition, in the assay on phospho-Histone H3, the “expression of phospho-Histone H3, a marker of mitosis” value is “increased abnormal expression of a phospho-Histone H3 protein”.
Regarding `O=c1c2cc(-c3ccc4nc(-c5ccc(Cl)cc5)[nH]c4c3)ccc2ncn1CCN1CCCCC1` [Formula 1-15, 6-(2-(4-Chlorophenyl)-1H-benzo[d]imidazol-6-yl)-3-(2-(piperidin-1-yl)ethyl)quinazolin-4(3H)-one], the “morphological changes of the cells” value in the assay on SKBR3 [3] and in the assay on JIMT-1 [7] was “typical apoptotic morphology” in each case. Moreover, the cell viability result with MDA-MB-231 and in the assay on JIMT-1 [11] was “excellent activity” throughout. Also, the “inhibition of cell viability” value in the assay on JIMT-1 [11] and with SKBR3 [16] was “concentration-dependent inhibition of cell viability” each time.
For `Cc1ccc(-c2nc3ccc(-c4ccc5ncn(CCN6CCCCC6)c(=O)c5c4)cc3[nH]2)cc1` [Formula 1-19], the degree of apoptosis entry in the assay on JIMT-1 [1] was “effectively induced early and late apoptosis”; in the assay on SKBR3 [2], “effectively induced early and late apoptosis”. In addition, the “morphological changes of the cells” value with SKBR3 [3] and with JIMT-1 [7] was “typical apoptotic morphology” in each case. Also, the cell viability result with MDA-MB-231 is “excellent activity”; in [5] it was “effectively inhibited”; in assay [6] it was “effectively inhibited”; in assay [8] it was “effectively inhibited”; in assay [9], “effectively inhibited”; in the assay with JIMT-1 [11] it was “excellent activity”. Besides, the cell viability entry in assay [12] and in assay [14] was “effectively inhibited” in each case. Moreover, the “cell cycle according to DNA content” value in the assay with JIMT-1 [4] was “G2/M phase cell cycle arrest”. For the same compound, the “activities of HER2, p95HER2, HER3, EGFR, AKT, and MEK” value in assay [10] is “effectively inhibited”. Further, the “protein expression and phosphorylation of HER2, HER family members (HER3 and EGFR), and AKT and MEK” value in assay [10] was “decreased in a time-dependent manner”. For the same compound, the “inhibition of cell viability” value in the assay with JIMT-1 [11] and with SKBR3 [16] was “concentration-dependent inhibition of cell viability” each time. Further, the “expression of apoptosis-related proteins and degradation of tubulin protein” value with tubulin protein [13] and in the assay on tubulin protein [15] was “apoptosis effect by inhibiting tubulin polymerization” in each case. The “expression of phospho-Histone H3, a marker of mitosis” value with phospho-Histone H3 is “increased abnormal expression of a phospho-Histone H3 protein”.
Regarding `O=c1c2cc(-c3ccc4nc(-c5ccc(Cl)cn5)[nH]c4c3)ccc2ncn1CCN1CCCCC1` [Formula 1-22, 6-(2-(5-Chloropyridin-2-yl)-1H-benzo[d]imidazol-6-yl)-3-(2-(piperidin-1-yl)ethyl)quinazolin-4(3H)-one], the “morphological changes of the cells” value with SKBR3 [3] and in the assay with JIMT-1 [7] was “typical apoptotic morphology” throughout. Besides, the cell viability result with MDA-MB-231 and in the assay on JIMT-1 [11] was “excellent activity” throughout. The “inhibition of cell viability” value in the assay on JIMT-1 [11] and in the assay with SKBR3 [16] was “concentration-dependent inhibition of cell viability” each time.
